22 molecules from US9321757B2, “Heterocyclic compound” (Takeda Pharmaceutical Company Limited, priority 2013, dated 2016) can be followed below.

The target in the first assay is T1, IRAK-4 (Homo sapiens, UniProt Q9NWZ3).
T1 construct: purchased Carna Biosciences, Inc
T1 sequence (Q9NWZ3 1-460): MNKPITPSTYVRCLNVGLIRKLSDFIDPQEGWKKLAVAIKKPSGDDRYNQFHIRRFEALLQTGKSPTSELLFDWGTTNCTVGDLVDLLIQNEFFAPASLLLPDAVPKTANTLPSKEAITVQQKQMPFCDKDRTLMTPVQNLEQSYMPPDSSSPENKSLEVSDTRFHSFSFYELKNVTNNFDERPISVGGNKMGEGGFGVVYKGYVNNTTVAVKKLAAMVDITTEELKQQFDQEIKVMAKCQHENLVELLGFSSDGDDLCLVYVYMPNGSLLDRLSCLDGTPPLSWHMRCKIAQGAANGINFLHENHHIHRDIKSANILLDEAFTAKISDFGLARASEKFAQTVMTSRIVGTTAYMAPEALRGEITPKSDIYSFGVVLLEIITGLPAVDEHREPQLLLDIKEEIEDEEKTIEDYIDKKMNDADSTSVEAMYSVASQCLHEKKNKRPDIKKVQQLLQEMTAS
Description: IRAK-4 Enzyme Inhibition Test (LANCE method). The class given is biochemical. The settings on record: compound concentration 1 μM; well without enzyme = 100% inhibition. Here is the method: IRAK-4 enzyme inhibitory activities of test compounds were measured by LANCE method (PerkinElmer). First, a test compound diluted with assay buffer (50 mM HEPES (pH7.5), 10 mM MgCl2, 1 mM EGTA, 2 mM DTT, 0.01% Tween 20, 0.01% BSA) was added to 384-well plate at 2 μL each. Then, IRAK-4 (Carna Biosciences, Inc.) and a fluorescence-labeled peptide substrate (ULight-ACC peptide, PerkinElmer) solution diluted with assay buffer at 240 ng/mL and 37.5 nM, respectively were added at 2 μL each. Then, enzyme reaction was started by adding 2 μL each of ATP solution prepared with assay buffer at 1.5 mM. After the reaction at room temperature for 1 hr, Detection Buffer (PerkinElmer) prepared to be 20 mM EDTA, 1 nM europium-labeled anti-phospho ACC antibody (PerkinElmer) was added at 6 μL each. After standing at room temperature for 1 hr, fluorescence intensity (excitation wavelength 340 nm, fluorescence wavelength 665 nm, delay time 100 microseconds) was measured by a plate reader, Envision (PerkinElmer). The inhibitory activity of each compound was calculated as relative value where fluorescence intensity of a well without enzyme is considered as 100% inhibition.
On the technique in general: TR-FRET usually uses a lanthanide donor and a delayed reading to cut background.
On to `CN(C)CC1CN(c2nn(C)cc2NC(=O)c2coc(-c3ccnc(NCC(F)(F)F)c3)n2)C(=O)C1(C)C` (stereo not shown) [Example 62, N-(3-(4-((dimethylamino)methyl)-3,3-dimethyl-2-oxopyrrolidin-1-yl)-1-methyl-1H-pyrazol-4-yl)-2-(2-((2,2,2-trifluoroethyl)amino)pyridin-4-yl)-1,3-oxazole-4-carboxamide], for which the “IRAK4 enzyme inhibitory rate (%) at 1 μM” value is 100%.

Staying with this assay, now noted: compound concentration 1 μM; well without enzyme = 100% inhibition; read-out: IRAK4 enzyme inhibitory rate (%) at 1 μM.
Turning to `Cn1cc(NC(=O)c2coc(-c3ccnc(NCC(F)(F)F)c3)n2)c(N2CC(CO)C(C)(C)C2=O)n1` (stereo not shown) [Example 101, N-(3-(4-(hydroxymethyl)-3,3-dimethyl-2-oxopyrrolidin-1-yl)-1-methyl-1H-pyrazol-4-yl)-2-(2-((2,2,2-2-trifluoroethyl)amino)pyridin-4-yl)-1,3-oxazole-4-carboxamide], the inhibition at 1 µM was 99%.

`CN1CCN(c2nn(C)cc2NC(=O)c2cccc(N3CC4(CCNC4)NC3=O)n2)C1=O` (stereo not shown) [Example 215, N-(1-methyl-3-(3-methyl-2-oxoimidazolidin-1-yl)-1H-pyrazol-4-yl)-6-(2-oxo-1,3,7-triazaspiro[4.4]non-3-yl)pyridine-2-carboxamide]: the inhibition at 1 µM turned out to be 100%.

For the molecule `Cn1cc(NC(=O)c2coc(-c3ccnc(NCC(F)F)c3)n2)c(N2CCN(CCO)C2=O)n1` [Example 60, 2-(2-((2,2-difluoroethyl)amino)pyridin-4-yl)-N-(3-(3-(2-hydroxyethyl)-2-oxoimidazolidin-1-yl)-1-methyl-1H-pyrazol-4-yl)-1,3-oxazole-4-carboxamide], the inhibition at 1 µM came to 99%.

For `C[C@H]1CCN(c2nn(C)cc2NC(=O)c2coc(-c3ccnc(NCC(F)(F)F)c3)n2)C1=O` [Example 77, N-(1-methyl-3-((3S)-3-methyl-2-oxopyrrolidin-1-yl)-1H-pyrazol-4-yl)-2-(2-((2,2,2-trifluoroethyl)amino)pyridin-4-yl)-1,3-oxazole-4-carboxamide], the inhibition at 1 µM came out at 99%.

As to `CN(C)[C@H]1CC(=O)N(c2nn(C)cc2NC(=O)c2coc(-c3ccnc(NCC(F)(F)F)c3)n2)C1` [Example 16, N-(3-((4S)-4-(dimethylamino)-2-oxopyrrolidin-1-yl)-1-methyl-1H-pyrazol-4-yl)-2-(2-((2,2,2-trifluoroethyl)amino)pyridin-4-yl)-1,3-oxazole-4-carboxamide], the inhibition at 1 µM amounted to 98%.

For `CN(C)CC1CN(c2nn(C)cc2NC(=O)c2coc(-c3ccnc(NCC(F)(F)F)c3)n2)C(=O)C1(C)C` (stereo not shown) [Example 61, N-(3-(4-((dimethylamino)methyl)-3,3-dimethyl-2-oxopyrrolidin-1-yl)-1-methyl-1H-pyrazol-4-yl)-2-(2-((2,2,2-trifluoroethyl)amino)pyridin-4-yl)-1,3-oxazole-4-carboxamide], the inhibition at 1 µM is 100%.

On to `Cc1cccc(C(=O)Nc2cn(C)nc2N2CCC(C)(C)C2=O)c1` [Example 46, N-(3-(3,3-dimethyl-2-oxopyrrolidin-1-yl)-1-methyl-1H-pyrazol-4-yl)-3-methylbenzamide], for which the inhibition at 1 µM turned out to be 30%.

Regarding `CC1CCN(c2nn(C)cc2NC(=O)c2coc(-c3ccnc(NCC(F)(F)F)c3)n2)C1=O` (stereo not shown) [Example 2, N-(1-methyl-3-(3-methyl-2-oxopyrrolidin-1-yl)-1H-pyrazol-4-yl)-2-(2-((2,2,2-trifluoroethyl)amino)pyridin-4-yl)-1,3-oxazole-4-carboxamide], the inhibition at 1 µM turned out to be 98%.

On to `Cn1cc(NC(=O)c2coc(-c3ccnc(NCC(F)(F)F)c3)n2)c(N2C[C@@H](O)CC2=O)n1` [Example 1, N-(3-((4S)-4-hydroxy-2-oxopyrrolidin-1-yl)-1-methyl-1H-pyrazol-4-yl)-2-(2-((2,2,2-trifluoroethyl)amino)pyridin-4-yl)-1,3-oxazole-4-carboxamide], for which the inhibition at 1 µM was 98%.

`Cn1cc(NC(=O)c2cccc(N3C[C@@H](CN)NC3=O)n2)c(N2CCC(C)(C)C2=O)n1` [Example 199, 6-((4R)-4-(aminomethyl)-2-oxoimidazolidin-1-yl)-N-(3-(3,3-dimethyl-2-oxopyrrolidin-1-yl)-1-methyl-1H-pyrazol-4-yl)pyridine-2-carboxamide]: the inhibition at 1 µM turned out to be 99%.

As for `CC(O)CN1CCN(c2nn(C)cc2NC(=O)c2coc(-c3ccnc(NCC(F)(F)F)c3)n2)C1=O` (stereo not shown) [Example 164, N-(3-(3-(2-hydroxypropyl)-2-oxoimidazolidin-1-yl)-1-methyl-1H-pyrazol-4-yl)-2-(2-((2,2,2-trifluoroethyl)amino)pyridin-4-yl)-1,3-oxazole-4-carboxamide], the inhibition at 1 µM was 98%.

For `CNCC1CN(c2nn(C)cc2NC(=O)c2coc(-c3ccnc(NCC(F)(F)F)c3)n2)C(=O)N1C` (stereo not shown) [Example 110, N-(1-methyl-3-(3-methyl-4-((methylamino)methyl)-2-oxoimidazolidin-1-yl)-1H-pyrazol-4-yl)-2-(2-((2,2,2-trifluoroethyl)amino)pyridin-4-yl)-1,3-oxazole-4-carboxamide], the inhibition at 1 µM is 98%.

Consider `CN1CCN(c2nn(C)cc2NC(=O)c2coc(-c3ccnc(NCC(F)(F)F)c3)n2)C1=O` [Example 48, N-(1-methyl-3-(3-methyl-2-oxoimidazolidin-1-yl)-1H-pyrazol-4-yl)-2-(2-((2,2,2-trifluoroethyl)amino)pyridin-4-yl)-1,3-oxazole-4-carboxamide], for which the inhibition at 1 µM came out at 99%.

Take `Cc1cccc(C(=O)Nc2cn(C)nc2N2CCC(C)(C)C2=O)n1` [Example 36, N-(3-(3,3-dimethyl-2-oxopyrrolidin-1-yl)-1-methyl-1H-pyrazol-4-yl)-6-methylpyridine-2-carboxamide]: the inhibition at 1 µM amounted to 36%.

For the molecule `Cn1cc(NC(=O)c2coc(-c3ccnc(NCC4CC4)c3)n2)c(N2CCN(CCO)C2=O)n1` [Example 59, 2-(2-((cyclopropylmethyl)amino)pyridin-4-yl)-N-(3-(3-(2-hydroxyethyl)-2-oxoimidazolidin-1-yl)-1-methyl-1H-pyrazol-4-yl)-1,3-oxazole-4-carboxamide], the inhibition at 1 µM was 100%.

In the case of `CN(C)CC1CC(=O)N(c2nn(C)cc2NC(=O)c2coc(-c3ccnc(NCC(F)(F)F)c3)n2)C1` (stereo not shown) [Example 3, N-(3-(4-((dimethylamino)methyl)-2-oxopyrrolidin-1-yl)-1-methyl-1H-pyrazol-4-yl)-2-(2-((2,2,2-trifluoroethyl)amino)pyridin-4-yl)-1,3-oxazole-4-carboxamide], the inhibition at 1 µM was determined as 100%.

Regarding `Cn1cc(NC(=O)c2coc(-c3ccnc(NCC(F)(F)F)c3)n2)c(N2CCOC2=O)n1` [Example 55, N-(1-methyl-3-(2-oxo-1,3-oxazolidin-3-yl)-1H-pyrazol-4-yl)-2-(2-((2,2,2-trifluoroethyl)amino)pyridin-4-yl)-1,3-oxazole-4-carboxamide], the inhibition at 1 µM was 99%.

Regarding `Cn1cc(NC(=O)c2cccc(N3CC4(CCNC4)NC3=O)n2)c(N2CCC(C)(C)C2=O)n1` (stereo not shown) [Example 206, N-(3-(3,3-dimethyl-2-oxopyrrolidin-1-yl)-1-methyl-1H-pyrazol-4-yl)-6-(2-oxo-1,3,7-triazaspiro[4.4]non-3-yl)pyridine-2-carboxamide], the inhibition at 1 µM was found to be 100%.

For `C[C@H]1C(O)C(C)(C)C(=O)N1c1nn(C)cc1NC(=O)c1coc(-c2ccnc(NCC(F)(F)F)c2)n1` (stereo partly drawn) [Example 17, N-(3-((5S)-4-hydroxy-3,3,5-trimethyl-2-oxopyrrolidin-1-yl)-1-methyl-1H-pyrazol-4-yl)-2-(2-((2,2,2-trifluoroethyl)amino)pyridin-4-yl)-1,3-oxazole-4-carboxamide], the inhibition at 1 µM is 77%.

In the case of `Cn1cc(NC(=O)c2ccn(C(F)F)n2)c(N2CCC(C)(C)C2=O)n1` [Example 40, 1-(difluoromethyl)-N-(3-(3,3-dimethyl-2-oxopyrrolidin-1-yl)-1-methyl-1H-pyrazol-4-yl)-1H-pyrazole-3-carboxamide], the inhibition at 1 µM worked out at 56%.

Consider `Cn1cc(NC(=O)c2coc(-c3ccnc(NCC(F)(F)F)c3)n2)c(N2CCC(C)(C)C2=O)n1` [Example 13, N-(3-(3,3-dimethyl-2-oxopyrrolidin-1-yl)-1-methyl-1H-pyrazol-4-yl)-2-(2-((2,2,2-trifluoroethyl)amino)pyridin-4-yl)-1,3-oxazole-4-carboxamide], for which the inhibition at 1 µM amounted to 98%.
